Data from patent US20060083784A1, “Amorphous pharmaceutical compositions” (SmithKline Beecham Corporation, priority 2002, published 2006).
Several values for one entry are separate records, joined by “and”; a condition that tells them apart may be missing. Equal entries are not always repeated.

Experiments:
[1] = In vitro dissolution assay (modified USP 4 flow cell), Compound II samples; type: physicochemical; settings: 0.1M HCl, 37° C., UV 244 nm
Procedure: (§1) The equipment used for this procedure is a modified USP 4, the major differences being: 1. low volume cell. 2. stirred cell. 3. retaining filters which are adequate at retaining sub micron material. The total run time is 40 minutes. 2.5 mg of drug (weigh proportionally more formulated material).
(§2) Flow Cell Description: Swinnex filter assemblies obtained from Millipore, having 0.2 micron Cellulose Nitrate membranes. (Millipore, Mass.) as internal filters. The internal volume of the cell is approximately 2 ml. A Small PTFE stirrer customized to fit the Swinnex assembly (Radleys Lab Equipment Halfround Spinvane F37136) is used. The dissolution medium at a flow rate of 5 ml/min is used. The whole set up is placed at a thermostat of 37° C. The drug concentration is measured by passing the eluent through a UV detector having a flow cell dimension of 10 mm. The UV detection is carried out at an appropriate wavelength for the drug.
(§3) The experimentation is designed to evaluate drug dissolution rate. As such it is unlikely with poorly soluble drugs, and with water as the dissolution medium, that 100% of the drug will dissolve in the 40 minute duration of the test. To determine the extent of drug solubility over this period one collects all 200 ml of solution that elutes from the dissolution cell. Using a conventional UV spectrophotometer, this solution is compared against a reference solution of 2.5 or 4 mg of active agent dissolved in a suitable medium.
In vitro dissolution rates of samples 2.1, 2.2, 2.3, 2.4, 2.5 and 2.6 were determined using the protocol described in the experimental section. The dissolution medium was 0.1M HCl, and the wavelength used for drug detection 244 nm. An unmilled lot of Compound II was used for comparison.

[2] = In vitro dissolution assay (modified USP 4 flow cell), Compound I samples; type: physicochemical; settings: water and acetonitrile (8:2), 37° C., UV 275 nm, hemihydrate
Procedure: as §1, §2
as §3, with “cell.” for “cell. Using a conventional UV spectrophotometer, this solution is compared against a reference solution of 2.5 or 4 mg of active agent dissolved in a suitable medium.”
In vitro dissolution rates of samples 1.1, 1.2 and 1.3 were determined using the protocol described in the experimental section. The dissolution medium was a mixture of water and acetonitrile (8:2), and the wavelength used for drug detection 275 nm.

% Drug Dissolved 10 min ([1]; 10 min) [%]	% Drug Dissolved 20 min ([1]; 20 min) [%]	% Drug Dissolved 30 min ([1]; 30 min) [%]	% Drug Dissolved 40 min ([1]; 40 min) [%]	Molecule	% Drug Dissolved 10 min ([2]; 10 min)	% Drug Dissolved 20 min ([2]; 20 min)	% Drug Dissolved 30 min ([2]; 30 min)	% Drug Dissolved 40 min ([2]; 40 min)
3.8	6.3	8.5	10.7	CC[C@H](NC(=O)c1c(O)c(-c2ccccc2)nc2ccccc12)c1ccccc1.Cl [Compound II, 3-Hydroxy-2-phenyl-N-[(1S)-1-phenylpropyl]-4-quinolinecarboxamide monohydrochloride]				
				6-Acetyl-3,4-dihydro-2,2-dimethyl-trans(+)-4-(4-fluorobenzoylamino)-2H-benzo[b]pyran-3-ol hemihydrate [Compound I]	17.4% and 12.1%	24.3% and 18.2%	29.4% and 23.2%	33.8% and 27.8%
